Where two headings read alike, the source gives them in different places.
Key:
[1] = human
plasma protein = conditions: cited from earlier work; for fp_Human (free fraction in plasma): human
[2] = human, cited from earlier work
[3] = cited from earlier work
[4] = human, cited from earlier work; for Rb_Human: blood-to-plasma concentration ratio, median if multiple values reported, Reference of Table S1
[5] = collected value, median if multiple values were reported, ref: Table S1
[6] = intravenous, median if multiple values were reported, ref numbers in Table S1
[7] = human, intravenous, median if multiple values were reported, ref numbers in Table S1
[8] = median if multiple values were reported, ref numbers in Table S1
[9] = free fraction in human plasma, median if multiple values reported, Reference of Table S1
[10] = intravenous, median if multiple values reported, Reference of Table S1
[11] = human, intravenous, median if multiple values reported, Reference of Table S1

Compound	fp_Human (plasma protein; [9])	in vivo Vd_(L/kg)_Human [2, 10] [L/kg]	Rb_Human [4]	in vivo CL_(L/hr/kg)_Human [3, 11] [L/h/kg]	other results
CC(C)NCC(O)COc1ccc(CCOCC2CC2)cc1 (stereo not shown) [Betaxolol]	–	–	–	–	in vivo MRT_(hr)_Human [1]: 23.529 h; fp_Human (free fraction in plasma) (plasma protein; [5]): 0.495; in vivo Vd_(L/kg)_Human [2, 6]: 4.800 L/kg; in vivo CL_(L/hr/kg)_Human [3, 7]: 0.204 L/h/kg; Rb_Human (blood-to-plasma concentration ratio) [4, 8]: 0.79
CC[C@H](C)C[C@H](C)CCCCCCCCC(=O)N[C@H]1C[C@@H](O)[C@@H](NCCN)NC(=O)[C@@H]2[C@@H](O)CCN2C(=O)[C@H]([C@H](O)CCN)NC(=O)[C@H]([C@H](O)[C@@H](O)c2ccc(O)cc2)NC(=O)[C@@H]2C[C@@H](O)CN2C(=O)[C@H]([C@@H](C)O)NC1=O [Caspofungin]	–	–	–	–	in vivo MRT_(hr)_Human [1]: 15.476 h; fp_Human (free fraction in plasma) (plasma protein; plasma): 0.035; in vivo Vd_(L/kg)_Human ([2]; in vivo, iv): 0.130 L/kg; in vivo CL_(L/hr/kg)_Human ([3]; in vivo, iv): 0.008 L/h/kg; Rb_Human (blood-to-plasma concentration ratio) ([4]; plasma): 0.74
C=C1CC[C@@]2(O)[C@H]3Cc4ccc(O)c5c4[C@@]2(CCN3CC2CC2)[C@H]1O5 [Nalmefene]	–	–	–	–	fp_Human (free fraction in plasma) (plasma protein; [5]): 0.650; in vivo Vd_(L/kg)_Human [2, 6]: 8.200 L/kg; in vivo CL_(L/hr/kg)_Human [3, 7]: 0.900 L/h/kg; Rb_Human (blood-to-plasma concentration ratio) [4, 8]: 1.11
OC(CNCC(O)C1CCc2cc(F)ccc2O1)C1CCc2cc(F)ccc2O1 (stereo not shown) [Nebivolol]	–	–	–	–	fp_Human (free fraction in plasma) (plasma protein; [5]): 0.020; in vivo Vd_(L/kg)_Human [2, 6]: 11.000 L/kg; in vivo CL_(L/hr/kg)_Human [3, 7]: 0.840 L/h/kg; Rb_Human (blood-to-plasma concentration ratio) [4, 8]: 1.20
O=C1c2cccc3c2[C@H](CCC3)CN1[C@@H]1CN2CCC1CC2 [Palonosetron]	–	–	–	–	fp_Human (free fraction in plasma) (plasma protein; [5]): 0.380; in vivo Vd_(L/kg)_Human [2, 6]: 6.300 L/kg; in vivo CL_(L/hr/kg)_Human [3, 7]: 0.156 L/h/kg; Rb_Human (blood-to-plasma concentration ratio) [4, 8]: 1.20
CCOc1ccc(NC(C)=O)cc1 [Phenacetin]	0.470	1.400	1.01	–	in vivo MRT_(hr)_Human [1]: 1.111 h
c1ccc(C2(N3CCCCC3)CCCCC2)cc1 [Phencyclidine]	0.350	6.550	0.94	0.306	–
CC(C)NCC(O)COc1cccc2[nH]ccc12 (stereo not shown) [Pindolol]	0.580	1.200	0.69	–	in vivo MRT_(hr)_Human [1]: 2.597 h
CC[C@H](C)C(=O)O[C@H]1C[C@H](O)C=C2C=C[C@H](C)[C@H](CC[C@@H](O)C[C@@H](O)CC(=O)O)[C@H]21 [Pravastatin]	0.500	0.460	0.59	0.840	–
CCc1nc(N)nc(N)c1-c1ccc(Cl)cc1 [Pyrimethamine]	0.095	0.430	0.98	0.003	–
CNC(=C[N+](=O)[O-])NCCSCc1ccc(CN(C)C)o1 [Ranitidine]	0.900	1.200	1.00	–	in vivo MRT_(hr)_Human [1]: 2.083 h
CCOc1cc(CC(=O)N[C@@H](CC(C)C)c2ccccc2N2CCCCC2)ccc1C(=O)O [Repaglinide]	0.015	0.350	0.55	0.513	–
Cc1nc2sccn2c(=O)c1CCN1CCC(=C(c2ccc(F)cc2)c2ccc(F)cc2)CC1 [Ritanserin]	0.009	1.410	0.65	0.031	–
CCCN1CCCC[C@H]1C(=O)Nc1c(C)cccc1C [Ropivacaine]	0.065	0.750	0.81	0.330	–
C#CCN(C)[C@H](C)Cc1ccccc1 [Selegiline]	–	–	1.73	1.200	fp_Human (plasma protein): 0.095; in vivo Vd_(L/kg)_Human ([2]; in vivo, iv): 1.900 L/kg
CC(C)NCC(O)c1ccc(NS(C)(=O)=O)cc1 (stereo not shown) [Sotalol]	0.810	1.300	1.07	–	in vivo MRT_(hr)_Human [1]: 10.833 h

Compound	fp_Human (plasma protein; [9])	in vivo Vd_(L/kg)_Human [2, 10] [L/kg]	Rb_Human [4]	in vivo CL_(L/hr/kg)_Human [3, 11] [L/h/kg]	other results
Cc1cn([C@H]2C=C[C@@H](CO)O2)c(=O)[nH]c1=O [Stavudine]	1.000	0.670	1.30	0.492	–
CCOc1ccccc1OCCN[C@H](C)Cc1ccc(OC)c(S(N)(=O)=O)c1 [Tamsulosin]	0.010	0.210	0.55	0.037	–
CCCCCNC(=N)N/N=C/c1c[nH]c2ccc(OC)cc12 [Tegaserod]	0.020	5.300	0.72	1.080	–
CCCc1nc2c(C)cc(-c3nc4ccccc4n3C)cc2n1Cc1ccc(-c2ccccc2C(=O)O)cc1 [Telmisartan]	0.004	6.295	1.22	0.504	–
C[C@H](Cn1cnc2c(N)ncnc21)OCP(=O)(O)O [Tenofovir]	0.930	0.830	1.05	0.186	–
COc1ccccc1Oc1c(NS(=O)(=O)c2ccc(C(C)C)cn2)nc(-c2ccnc(-c3nnn[nH]3)c2)nc1OCCO [Tezosentan]	0.0085	0.280	0.60	0.486	–
CC(C)(C)NC[C@H](O)COc1nsnc1N1CCOCC1 [Timolol]	0.491	1.500	0.84	0.462	–
Nc1nc(N)c2nc(-c3ccccc3)c(N)nc2n1 [Triamterene]	0.420	13.000	1.03	3.780	–
COc1cc(Cc2cnc(N)nc2N)cc(OC)c1OC [Trimethoprim]	0.500	1.500	1.03	–	in vivo MRT_(hr)_Human [1]: 11.905 h
Cc1c(C)c2c(c(C)c1O)CCC(C)(COc1ccc(CC3SC(=O)NC3=O)cc1)O2 (stereo not shown) [Troglitazone]	0.00347	0.710	0.55	0.210	–
CCCC(CCC)C(=O)O [Valproic Acid]	0.091	0.145	0.64	0.008	–
O=C1Cc2cc(CCN3CCN(c4nsc5ccccc45)CC3)c(Cl)cc2N1 [Ziprasidone]	0.0012	1.000	0.81	0.504	–
O=P(O)(O)C(O)(Cn1ccnc1)P(=O)(O)O [Zoledronic Acid]	0.780	0.600	0.59	0.132	–
Oc1ccc2c(c1)[C@@]13CCCC[C@@]1(O)[C@@H](C2)N(CC1CCC1)CC3 [butorphanol, reference compound]	–	–	–	–	fp_Human (free fraction in plasma) (plasma protein; [5]): 0.170; in vivo Vd_(L/kg)_Human ([2]; in vivo, iv): 12.000 L/kg; in vivo CL_(L/hr/kg)_Human [3, 7]: 2.460 L/h/kg; Rb_Human (blood-to-plasma concentration ratio) ([4]; plasma): 1.90
Isosorbide mononitrate	–	–	–	–	fp_Human (plasma protein; human plasma free fraction, median if multiple values were reported, ref numbers in Table S1): 0.850; fp_Human (free fraction in plasma) (plasma protein; [5]): 0.850; in vivo Vd_(L/kg)_Human ([2]; in vivo, iv): 0.600 L/kg; in vivo CL_(L/hr/kg)_Human [3, 7]: 0.102 L/h/kg; Rb_Human (blood-to-plasma concentration ratio) ([4]; plasma): 1.00

From publication PMC8342319, “Predicting blood-to-plasma concentration ratios of drugs from chemical structures and volumes of distribution in humans” (Molecular Diversity, 2021)
